Experimental data reported in ChEMBL document CHEMBL5113377, “Development of Selective FXIa Inhibitors Based on Cyclic Peptides and Their Application for Safe Anticoagulation” (J Med Chem, 2021).
*1 amine or outer side, *2 acyl side, *3 side chain or, on linkers, in order; H or OH if unused. Where a SMILES comes first, the peptide text is derived from it. Bridges are numbered along the chain shown (N, C = ends). CH2COCH2 = O=C(C[*:1])C[*:2]; X1 = C(=C\C[*:2])/C[*:1]

Legend:
[1] = molecular target: Coagulation factor XI (Homo sapiens, UniProt P03951); experiment: Inhibition of biotinylated human FXIa assessed as inhibition of p-nitroaniline release using Pyr-Pro-Arg-pNA as substrate measured for 20 mins
[2] = test system: Plasma; experiment: Anticoagulant activity in CaCl2-activated human plasma assessed as fold prolongation of activated partial thromboplastin time at 30 uM relative to control; type: functional
[3] = test system: Plasma; experiment: Anticoagulant activity in CaCl2-activated human plasma assessed as prolongation of activated partial thromboplastin time; type: functional
[4] = test system: Plasma; experiment: Anticoagulant activity in CaCl2-activated human plasma assessed as concentration required to achieve 1.6 fold prolongation of activated partial thromboplastin time; type: functional
[5] = test system: Blood; experiment: Anticoagulant activity in human blood assessed as concentration required to achieve the effects achieved with minimal therapeutic dose of UFH for prolongation of aPTT; type: functional
[6] = test system: Plasma; experiment: Anticoagulant activity in CaCl2-activated human plasma assessed as concentration required to achieve 5.1 fold prolongation of activated partial thromboplastin time; type: functional
[7] = species: Homo sapiens; experiment: Selectivity for biotinylated human FXIa over beta-FXIIa (unknown origin)
[8] = test system: Plasma; experiment: Anticoagulant activity in rabbit plasma assessed as prolongation of activated partial thromboplastin time; type: functional, Oryctolagus cuniculus
[9] = species: Homo sapiens; experiment: Selectivity for biotinylated human FXIa over plasmin (unknown origin)
[10] = species: Homo sapiens; experiment: Selectivity for biotinylated human FXIa over tPA (unknown origin)
[11] = test system: Blood; experiment: Anticoagulant activity in human whole blood assessed as activated clotting time; type: functional
[12] = species: Homo sapiens; experiment: Selectivity for biotinylated human FXIa over uPA (unknown origin)
[13] = species: Homo sapiens; experiment: Selectivity for biotinylated human FXIa over thrombin (unknown origin)
[14] = species: Homo sapiens; experiment: Selectivity for biotinylated human FXIa over plasma kallikrein (unknown origin)
[15] = species: Homo sapiens; experiment: Selectivity for biotinylated human FXIa over trypsin (unknown origin)
[16] = Stability in human plasma assessed as half life at 40 uM measured for 48 hrs; type: ADME, cell-free

Chain of Coagulation factor XI (P03951 19-387 limits assumed): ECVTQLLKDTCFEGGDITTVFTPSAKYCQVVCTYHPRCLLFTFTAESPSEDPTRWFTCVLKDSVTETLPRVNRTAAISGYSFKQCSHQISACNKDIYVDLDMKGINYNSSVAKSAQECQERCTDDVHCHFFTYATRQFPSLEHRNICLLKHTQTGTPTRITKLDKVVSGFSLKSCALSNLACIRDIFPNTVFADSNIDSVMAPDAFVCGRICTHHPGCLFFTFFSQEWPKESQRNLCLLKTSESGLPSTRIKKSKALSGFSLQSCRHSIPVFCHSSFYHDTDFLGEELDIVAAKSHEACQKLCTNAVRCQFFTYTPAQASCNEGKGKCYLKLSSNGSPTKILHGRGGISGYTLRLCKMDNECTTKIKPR
Chain of Coagulation factor XI (P03951 388-625 limits assumed): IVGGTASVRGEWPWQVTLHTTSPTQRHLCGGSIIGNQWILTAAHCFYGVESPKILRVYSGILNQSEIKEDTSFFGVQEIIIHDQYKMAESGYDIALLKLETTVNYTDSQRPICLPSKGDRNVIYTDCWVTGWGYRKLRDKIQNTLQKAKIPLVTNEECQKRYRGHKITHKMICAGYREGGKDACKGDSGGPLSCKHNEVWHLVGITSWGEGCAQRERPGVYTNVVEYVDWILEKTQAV

**Q.** Which results are given for CC(C)C[C@@H]1NC(=O)CNC(=O)[C@H](CCC(N)=O)NC(=O)[C@@H](NC(=O)[C@@H](N)CCCNC(=N)N)CSCC(=O)CSC[C@@H](C(=O)N[C@@H](Cc2ccccc2)C(=O)N[C@H](C(=O)N[C@@H](CO)C(=O)N[C@@H](CC(N)=O)C(=O)N[C@@H](CCCCN)C(=O)N[C@@H](Cc2ccc(O)cc2)C(=O)N[C@H]2CSCC(=O)CSC[C@@H](C(=O)N3CCC[C@H]3C(=O)O)NC(=O)[C@H](CCCNC(=N)N)NC(=O)[C@H](C)NC2=O)[C@@H](C)O)NC(=O)[C@H](Cc2c[nH]c3ccccc23)NC1=O (H-RCQGLWCFTSNKYCARCP-OH; linker 2-7, 14-17 via CH2COCH2)?
**A.** Ki [1]: 62 nM; fold change (FC) [2]: 3.2

**Q.** Which Ki [1] does the source give for CSCC[C@H](NC(=O)[C@H](CO)NC(=O)[C@@H](NC(=O)[C@H](CCCNC(=N)N)NC(=O)[C@H](CCC(N)=O)NC(=O)[C@H](CCC(N)=O)NC(=O)[C@@H]1CSCC(=O)CSC[C@H](NC(=O)[C@@H](N)CC(C)C)C(=O)N[C@@H](CO)C(=O)N[C@@H](CO)C(=O)N2CCC[C@H]2C(=O)N[C@@H](CO)C(=O)N1)[C@@H](C)O)C(=O)N[C@H]1CSCC(=O)CSC[C@H](C(=O)N2CCC[C@H]2C(=O)O)NC(=O)[C@H](CCCNC(=N)N)NC(=O)[C@H](Cc2ccc(O)cc2)NC1=O here?
**A.** The Ki was 100 nM.

**Q.** And the “fold change (FC)” value [2]?
**A.** The value was 1.9.

**Q.** With CSCC[C@@H]1NC(=O)CNC(=O)[C@H](CCCNC(=N)N)NC(=O)[C@@H](NC(=O)CN)CSCC(=O)CSC[C@@H](C(=O)N[C@H](C(=O)N[C@@H](CCCNC(=N)N)C(=O)N[C@H](C(=O)N[C@@H](CO)C(=O)N2CCC[C@H]2C(=O)N[C@@H](Cc2ccccc2)C(=O)N[C@H]2CSCC(=O)CSC[C@@H](C(=O)N3CCC[C@H]3C(=O)O)NC(=O)[C@H](CCCNC(=N)N)NC(=O)[C@H](C)NC2=O)[C@@H](C)O)C(C)C)NC(=O)[C@H](CO)NC1=O (H-GCRGMSCVRTSPFCARCP-OH; linker 2-7, 14-17 via CH2COCH2) as the molecule, how does the Ki [1] read?
**A.** The Ki was 260 nM.

**Q.** What about the “fold change (FC)” value [2] of the same molecule?
**A.** The value was 2.4.

**Q.** With CC[C@H](C)[C@@H]1NC(=O)[C@H](CCCNC(=N)N)NC(=O)[C@H]([C@@H](C)O)NC(=O)[C@H](CC(C)C)NC(=O)[C@H](C)NC(=O)[C@H](CO)NC(=O)[C@@H](NC(=O)[C@H](CCCNC(=N)N)NC(=O)[C@H](CCCNC(=N)N)NC(=O)[C@@H](NC(=O)[C@H](C)NC(=O)[C@H](CCCNC(=N)N)NC(=O)[C@H](CO)NC(=O)[C@H](CO)NC(=O)[C@@H](N)CCC(N)=O)C(C)C)CSSC[C@@H](C(=O)N2CCC[C@H]2C(=O)O)NC(=O)[C@H](C(C)C)NC1=O (H-QSSRAVRRCSALTRIVCP-OH; disulfide 9-17) as the molecule, how does the EC2 [3] read?
**A.** Its EC2 is 3.1 µM.

**Q.** And the Ki [1]?
**A.** The Ki was 2.4 nM.

**Q.** With CC(C)C[C@H](NC(=O)[C@@H](NC(=O)[C@@H]1CSC/C=C/CSC[C@H](NC(=O)[C@@H](N)CCC(=O)O)C(=O)N[C@@H](CCCCN)C(=O)N[C@@H]([C@@H](C)O)C(=O)N2CCC[C@H]2C(=O)N[C@@H](CCCNC(=N)N)C(=O)N[C@@H](CCC(=O)O)C(=O)N1)[C@@H](C)O)C(=O)N[C@H](C(=O)N[C@@H](CCCNC(=N)N)C(=O)N[C@H]1CSC/C=C/CSC[C@@H](C(=O)N[C@@H](CCC(=O)O)C(=O)O)NC(=O)[C@H](CO)NC(=O)[C@H](Cc2cnc[nH]2)NC(=O)[C@H](C(C)C)NC1=O)[C@@H](C)O (H-ECKTPRECTLTRCVHSCE-OH; linker 2-8, 13-17 via X1) as the molecule, how does the Ki [1] read?
**A.** The Ki was 7.7 nM.

**Q.** What about the “fold change (FC)” value [2] of the same molecule?
**A.** The value was 2.

**Q.** With CC[C@H](C)[C@@H]1NC(=O)[C@@H](NC(=O)[C@H](CCCNC(=N)N)NC(=O)[C@@H](NC(=O)[C@H](CC(C)C)NC(=O)[C@@H](NC(=O)[C@@H]2CSC/C=C/CSC[C@H](NC(=O)[C@@H](N)CO)C(=O)N[C@@H](CCC(=O)O)C(=O)N[C@@H]([C@@H](C)O)C(=O)N3CCC[C@H]3C(=O)N[C@@H](CCC(N)=O)C(=O)N[C@@H](C)C(=O)N2)[C@@H](C)O)[C@@H](C)O)CSC/C=C/CSC[C@@H](C(=O)N[C@@H](CC(N)=O)C(=O)O)NC(=O)[C@H](CCC(N)=O)NC(=O)[C@H]([C@@H](C)O)NC1=O (H-SCETPQACTLTRCITQCN-OH; linker 2-8, 13-17 via X1) as the molecule, how does the Ki [1] read?
**A.** Its Ki is 72 nM.

**Q.** And the “fold change (FC)” value [2]?
**A.** Its value is 1.7.

**Q.** What does the source list for CC[C@H](C)[C@@H]1NC(=O)[C@H](CCCNC(=N)N)NC(=O)[C@H]([C@@H](C)O)NC(=O)[C@H](CC(C)C)NC(=O)[C@H](C)NC(=O)[C@H](CO)NC(=O)[C@@H](NC(=O)[C@H](CCCNC(=N)N)NC(=O)[C@H](CCCNC(=N)N)NC(=O)[C@@H](NC(=O)[C@H](C)NC(=O)[C@@H](N)CCCNC(=N)N)C(C)C)CSSC[C@@H](C(=O)N2CCC[C@H]2C(=O)O)NC(=O)[C@H](C(C)C)NC1=O (H-RAVRRCSALTRIVCP-OH; disulfide 6-14)?
**A.** Activity [4]: 0.34 µM; Activity [5]: 0.77 µM; Activity [6]: 45 µM; EC2 [3]: 1.5 µM; Ki [1]: 2.8 nM

**Q.** Which results are given for CC[C@H](C)[C@@H]1NC(=O)[C@H](CCCNC(=N)N)NC(=O)[C@H]([C@@H](C)O)NC(=O)[C@H](CC(C)C)NC(=O)[C@H](C)NC(=O)[C@H](CO)NC(=O)[C@@H](NC(=O)[C@H](CCCNC(=N)N)NC(=O)[C@H](CCCNC(=N)N)NC(=O)[C@@H](NC(=O)[C@H](C)NC(=O)[C@H](CCCCN)NC(=O)[C@@H]2CSCc3cccc(n3)CSC[C@@H](NC(=O)[C@@H](N)CCC(N)=O)C(=O)N2)C(C)C)CSCc2cccc(n2)CSC[C@@H](C(=O)N2CCC[C@H]2C(=O)O)NC(=O)[C@H](C(C)C)NC1=O?
**A.** Selectivity ratio [7]: > 1000; EC2 [8]: 2 µM; EC2 [3]: 2.9 µM; Ki [1]: 0.9 nM; Selectivity ratio [9]: > 1000; fold change (FC) [2]: 2.7; Selectivity ratio [10]: > 1000; EC1.5 [11]: 12 µM; Selectivity ratio [12]: > 1000; Selectivity ratio [13]: > 1000; Selectivity ratio [14]: > 1000; Selectivity ratio [15]: > 1000; half-life at 40 µM [16]: 7.6 h

**Q.** For CC[C@H](C)[C@@H]1NC(=O)[C@H](CCCNC(=N)N)NC(=O)[C@H]([C@@H](C)O)NC(=O)[C@H](CC(C)C)NC(=O)[C@H](C)NC(=O)[C@H](CO)NC(=O)[C@@H](NC(=O)[C@H](CCCNC(=N)N)NC(=O)[C@H](CCCNC(=N)N)NC(=O)[C@@H](NC(=O)[C@H](C)NC(=O)[C@H](CCCCN)NC(=O)[C@H](CO)NC(=O)[C@H](CO)NC(=O)[C@@H](N)CCC(N)=O)C(C)C)CSSC[C@@H](C(=O)N2CCC[C@H]2C(=O)O)NC(=O)[C@H](C(C)C)NC1=O (H-QSSKAVRRCSALTRIVCP-OH; disulfide 9-17), which EC2 [3] is on record?
**A.** Its EC2 is 4.9 µM.

**Q.** And the Ki [1]?
**A.** Its Ki is 2.6 nM.

**Q.** Which Ki [1] does the source give for CC(C)[C@@H]1NC(=O)[C@H](CCCNC(=N)N)NC(=O)[C@H](C)NC(=O)[C@H](CC(N)=O)NC(=O)[C@H](CO)NC(=O)[C@@H](NC(=O)[C@H](CO)NC(=O)CNC(=O)[C@H](CCC(N)=O)NC(=O)[C@H](C)NC(=O)[C@H](CCCNC(=N)N)NC(=O)[C@H](CCCNC(=N)N)NC(=O)[C@@H]2CSCc3cccc(n3)CSC[C@@H](NC(=O)[C@@H](N)CO)C(=O)N2)CSCc2cccc(n2)CSC[C@@H](C(=O)N[C@@H](Cc2cnc[nH]2)C(=O)O)NC(=O)[C@H](C(C)C)NC1=O here?
**A.** Its Ki is 270 nM.

**Q.** What about the “fold change (FC)” value [2] of the same molecule?
**A.** The value was 1.9.

**Q.** What does the source list for CC(C)C[C@@H]1NC(=O)[C@H](CCC(N)=O)NC(=O)[C@@H]2CCCN2C(=O)[C@@H](NC(=O)[C@@H](N)CO)CSC/C=C/CSC[C@@H](C(=O)N[C@@H](CO)C(=O)N[C@@H](CCCNC(=N)N)C(=O)N[C@H](C(=O)N[C@@H](CCCNC(=N)N)C(=O)N[C@H]2CSC/C=C/CSC[C@@H](C(=O)N[C@@H](CO)C(=O)O)NC(=O)[C@H](CC(=O)O)NC(=O)[C@H](CC(C)C)NC(=O)[C@H](C(C)C)NC2=O)[C@@H](C)O)NC(=O)[C@H](Cc2ccc(O)cc2)NC(=O)[C@H](CCC(=O)O)NC1=O (H-SCPQLEYCSRTRCVLDCS-OH; linker 2-8, 13-17 via X1)?
**A.** Ki [1]: 31 nM; fold change (FC) [2]: 1.6
